Tested on: inflammatory lesions in patient with acne
Assay: 2-(2-ethoxyethoxy)ethanol tested against an active ingredient (for example dapsone gel) in patients with acne
Assay type: in vivo, human
Text: Without being bound to any theory, we believe that the mechanism for this action is the 2-(2-ethoxyethoxy)ethanol may fluidize the lipids on the skin, thereby retarding the formation of microcomedones. If 2-(2-ethoxyethoxy)ethanol keep lipids from “gluing together” the desquamated keratinocytes, the number of clogged follicles, and subsequently the number of inflammatory lesions, would potentially be reduced. 2-(2-ethoxyethoxy)ethanol in the compositions of the present invention provides a means for stopping the formation of acne at its source; lipids and desquamated keratinocytes clogging pores leading to inflammation and formation of comedones. The compositions of the present invention may be active in clearing acne if used as a routine cleanser.

Question: For `CCOCCOCCO` [2-(2-ethoxyethoxy)ethanol], which “number of inflammatory lesions” value is on record?
Answer: appears to have activity to reduce the number of inflammatory lesions

Source: patent US20220331269A1, “COMPOSITIONS FOR TREATING ACNE” (Botanix Pharmaceuticals Ltd., priority 2017, published 2022)
